Results on 2 molecules are retold here after patent US12577537B2, “Method for culturing primary cancer cells through simulated microgravity-induced reprogramming and applications thereof” (SHANDONG UNIVERSITY, priority 2024, dated 2026).

Broadly, the viability is a read-out of living cells in per cent, often relative to untreated cells. Read a high viability as less harm to the cells. As usually defined, the IC50 is the concentration that gives 50% inhibition.

One data set can be described thus: in vitro. The following applies: human. An excerpt: (§1) Wherein, FIGS. 12D to 12I show the dose-response relationships of breast cancer cells (D, F, H) and normal breast tissue cells (E, G, I) from three patients (38, 7, and 71) to epirubicin; FIGS. 12J to 12O show the dose-response relationships of breast cancer cells (J, L, N) and normal breast tissue cells (K, M, O) from the same three patients (38, 7, and 71) to cyclophosphamide.
(§2) The inventors conducted drug-related experiments using the cancer cell models prepared by the method of the present application. FIG. 12A lists 8 types of common drugs used in clinical treatment of breast cancer, including epirubicin, cyclophosphamide, docetaxel, etc. This example selected two of them (FIG. 12B: epirubicin, FIG. 12C: cyclophosphamide) to conduct drug sensitivity tests on breast cancer cells from different patients cultivated in Example 5.

Another data set has as its system breast cancer cells. In words: Drug sensitivity test on SMGIR-cultured breast cancer cells from patients. It counts as cell-based. The following applies: Homo sapiens.
Description: as §1, §2

The subject of data set [1] is normal breast tissue cells. As to the kind of experiment: Drug sensitivity test on SMGIR-cultured normal breast tissue (cancer-adjacent) cells from patients. It counts as cell-based. The following applies: Homo sapiens.
Description: as §1, §2

As for `O=P1(N(CCCl)CCCl)NCCCO1` (stereo not shown) [cyclophosphamide], the viability at 4000 μM in “in vitro” lay within 70 to 80%.

Turning to `COc1cccc2c1C(=O)c1c(O)c3c(c(O)c1C2=O)C[C@@](O)(C(=O)CO)C[C@@H]3O[C@H]1C[C@H](N)[C@@H](O)[C@H](C)O1` [epirubicin], the IC50 in the data set on breast cancer cells (12 h, breast cancer cells from patient 71, SMGIR-cultured (FIG. 12H)) was determined as 454 nM; in the data set with breast cancer cells (breast cancer cells from patient 7, SMGIR-cultured (FIG. 12F)), 583 nM; in the data set on breast cancer cells (breast cancer cells from patient 38, SMGIR-cultured (FIG. 12D)) it was 369 nM; in data set [1] (normal breast tissue cells from patient 7, SMGIR-cultured (FIG. 12G)), 651 nM; in data set [1] (normal breast tissue cells from patient 38, SMGIR-cultured (FIG. 12E)), 357 nM; in data set [1] (normal breast tissue cells from patient 71, SMGIR-cultured (FIG. 12I)) it was 766 nM.
